Assay results: patent publication US20250136619A1, “HETEROBIFUNCTIONAL COMPOUNDS AND THEIR USE IN TREATING DISEASE” (HALDA THERAPEUTICS OPCO, INC., priority 2021, published 2025)
Where two headings read alike, the source gives them in different places.

How the values were obtained:
HeLa cells = test: Cellular growth inhibition assay (CellTiter-Glo), HeLa cells; format: cell-based; conditions: HeLa cells, three days of compound treatment, CellTiter-Glo 2.0, read-out: CTG HELA GI50
Method in brief: (§1)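 HeLa or HEK293 cells in DMEM with 10% FBS exposed to titrated compound for three days at 37 °C, 5% CO2, 24 h after seeding. Viability by CellTiter-Glo 2.0 luminescence, normalized to DMSO Day 0 and Day 3 readings; four-parameter fit gives GI50.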

BTK = BTK (Homo sapiens (Human), UniProt Q06187); test: KdELECT assay for binding affinity to BTK
Protocol: (§2) Compounds were tested using a KdELECT assay. Kinase-tagged T7 phage strains were prepared in an E. coli host derived from the BL21 strain. E. coli were grown to log-phase and infected with T7 phage and incubated with shaking at 32° C. until lysis. The lysates were centrifuged and filtered to remove cell debris. The remaining kinases were produced in HEK-293 cells and subsequently tagged with DNA for qPCR detection. Streptavidin-coated magnetic beads were treated with biotinylated small molecule ligands for 30 minutes at room temperature to generate affinity resins for kinase assays. The liganded beads were blocked with excess biotin and washed with blocking buffer (SeaBlock (Pierce), 1% BSA, 0.05% Tween 20, 1 mM DTT) to remove unbound ligand and to reduce non-specific binding. Binding reactions were assembled by combining kinases, liganded affinity beads, and test compounds in 1× binding buffer (20% SeaBlock, 0.17×PBS, 0.05% Tween 20, 6 mM DTT). Test compounds were prepared as 111X stocks in 100% DMSO. Kd values were determined using an 11-point 3-fold compound dilution series with three DMSO control points. All compounds for Kd measurements are distributed by acoustic transfer (non-contact dispensing) in 100% DMSO. The compounds were then diluted directly into the assays such that the final concentration of DMSO was 0.9%. All reactions performed in polypropylene 384-well plate. Each was a final volume of 0.02 mL. The assay plates were incubated at room temperature with shaking for 1 hour and the affinity beads were washed with wash buffer (1×PBS, 0.05% Tween 20). The beads were then re-suspended in elution buffer (1×PBS, 0.05% Tween 20, 0.5 μM nonbiotinylated affinity ligand) and incubated at room temperature with shaking for 30 minutes. The kinase concentration in the eluates was measured by qPCR.

CDK9 = CDK9 (Homo sapiens (Human), UniProt P50750); test: KdELECT assay for binding affinity to CDK9
Protocol: as §2, with “KdELECT.” for “KdELECT assay.”, “1×binding” for “1× binding”

HEK293 cells = test: Cellular growth inhibition assay (CellTiter-Glo), HEK293 cells; format: cell-based; conditions: HEK293 cells, three days of compound treatment, CellTiter-Glo 2.0, read-out: CTG HEK293 GI50
Method in brief: as §1

CDK9, sequence (P50750 whole entry): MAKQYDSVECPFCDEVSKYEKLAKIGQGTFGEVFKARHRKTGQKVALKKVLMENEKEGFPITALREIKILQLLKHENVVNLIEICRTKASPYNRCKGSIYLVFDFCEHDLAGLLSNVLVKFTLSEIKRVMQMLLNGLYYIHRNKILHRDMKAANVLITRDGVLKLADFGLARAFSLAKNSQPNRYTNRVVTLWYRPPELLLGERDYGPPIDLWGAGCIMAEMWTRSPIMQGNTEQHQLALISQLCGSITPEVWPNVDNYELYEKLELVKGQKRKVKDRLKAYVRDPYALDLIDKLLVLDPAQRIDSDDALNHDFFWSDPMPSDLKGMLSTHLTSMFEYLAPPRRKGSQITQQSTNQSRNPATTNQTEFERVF
BTK, sequence (Q06187 whole entry): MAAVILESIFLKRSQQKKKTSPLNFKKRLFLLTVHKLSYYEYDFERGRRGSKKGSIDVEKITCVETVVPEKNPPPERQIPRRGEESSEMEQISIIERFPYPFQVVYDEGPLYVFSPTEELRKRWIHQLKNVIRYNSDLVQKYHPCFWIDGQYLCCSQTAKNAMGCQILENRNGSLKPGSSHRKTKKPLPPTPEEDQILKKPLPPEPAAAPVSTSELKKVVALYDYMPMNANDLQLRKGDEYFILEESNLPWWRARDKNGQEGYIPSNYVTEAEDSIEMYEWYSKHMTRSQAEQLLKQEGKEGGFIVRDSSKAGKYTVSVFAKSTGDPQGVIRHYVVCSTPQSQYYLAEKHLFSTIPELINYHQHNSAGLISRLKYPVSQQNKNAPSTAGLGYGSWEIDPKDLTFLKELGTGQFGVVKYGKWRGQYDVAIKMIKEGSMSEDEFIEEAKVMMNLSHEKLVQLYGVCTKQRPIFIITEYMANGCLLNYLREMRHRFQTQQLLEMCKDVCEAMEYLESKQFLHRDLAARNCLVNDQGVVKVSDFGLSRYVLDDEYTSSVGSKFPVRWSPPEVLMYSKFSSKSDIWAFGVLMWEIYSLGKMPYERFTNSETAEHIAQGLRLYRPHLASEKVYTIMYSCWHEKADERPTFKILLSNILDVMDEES

Compound | GI50 (HeLa cells; Homo sapiens, 72 h) [nM] | Kd (BTK) [nM] | Kd (CDK9) [nM] | GI50 (HeLa cells) [nM] | GI50 (HEK293 cells; Homo sapiens, 72 h) [nM] | GI50 (HEK293 cells) [nM]
CCc1cnn2c(NCc3ccc(OCCCN4CCN(CCCN(C)C/C=C/C(=O)N5CCC[C@@H](n6nc(-c7ccc(Oc8ccccc8)cc7)c7c(N)ncnc76)C5)CC4)nc3)cc(N3CCCC[C@H]3CCO)nc12 [Compound I-69] |  | < 50 | < 50 | < 500 |  | < 500
CCc1cnn2c(NCc3ccc(OCCOCCOCCOC4CCN(C/C=C/C(=O)N5CCC[C@@H](n6nc(-c7ccc(Oc8ccccc8)cc7)c7c(N)ncnc76)C5)CC4)nc3)cc(N3CCCC[C@H]3CCO)nc12 [Compound I-70, (E)-1-((R)-3-(4-amino-3-(4-phenoxyphenyl)-1H-pyrazolo[3,4-d]pyrimidin-1-yl)piperidin-1-yl)-4-(4-(2-(2-(2-((5-(((3-ethyl-5-((S)-2-(2-hydroxyethyl)piperidin-1-yl)pyrazolo[1,5-a]pyrimidin-7-yl)amino)methyl)pyridin-2-yl)oxy)ethoxy)ethoxy)ethoxy)piperidin-1-yl) but-2-en-1-one] | < 500 | < 50 | 50 to 500 |  | 500 to 1500 | 
CCc1cnn2c(NCc3ccc(OCCOCCOCCOCCOCCN(C)C/C=C/C(=O)N(C)CCOc4c(N)ncnc4-c4cc(F)cc(NC(=O)c5ccc(C6CC6)cc5F)c4C)nc3)cc(N3CCCC[C@H]3CCO)nc12 [Compound I-77] |  | 500 to 2500 | 50 to 500 |  |  | 
Cc1c(NC(=O)c2ccc(C3CC3)cc2F)cc(F)cc1-c1ncnc(N)c1OCCN(C)C(=O)/C=C/CN(C)CCCN1CCN(CCCNS(=O)(=O)c2ccc(Nc3ncc(Br)c(Nc4cccc(F)c4C(N)=O)n3)cc2)CC1 [Compound I-79, 2-[[2-[4-[3-[4-[3-[[(E)-4-[2-[4-amino-6-[3-[(4-cyclopropyl-2-fluoro-benzoyl)amino]-5-fluoro-2-methyl-phenyl]pyrimidin-5-yl]oxyethyl-methyl-amino]-4-oxo-but-2-enyl]-methyl-amino]propyl]piperazin-1-yl]propylsulfamoyl]anilino]-5-bromo-pyrimidin-4-yl]amino]-6-fluoro-benzamide] | 1500 to 5000 | < 50 | 50 to 500 |  | > 5000 | 
CCc1cnn2c(NCc3ccc(OCCCN4CCN(CCCN(C)C/C=C/C(=O)N(C)CCOc5c(N)ncnc5-c5cc(F)cc(NC(=O)c6ccc(C7CC7)cc6F)c5C)CC4)nc3)cc(N3CCCC[C@H]3CCO)nc12 [Compound I-81, N-[3-[6-amino-5-[2-[[(E)-4-[3-[4-[3-[5-[[[3-ethyl-5-[(2S)-2-(2-hydroxyethyl)-1-piperidyl]pyrazolo[1,5-a]pyrimidin-7-yl]aminomethyl]-2-pyridyl]oxy]propyl]piperazin-1-yl]propyl-methyl-amino]but-2-enoyl]-methyl-amino]ethoxy]pyrimidin-4-yl]-5-fluoro-2-methyl-phenyl]-4-cyclopropyl-2-fluoro-benzamide] |  | < 50 | < 50 | < 500 |  | < 500
CCc1cnn2c(NCc3ccc(OCCOCCOCCOC4CCN(C/C=C/C(=O)N(C)CCOc5c(N)ncnc5-c5cc(F)cc(NC(=O)c6ccc(C7CC7)cc6F)c5C)CC4)nc3)cc(N3CCCC[C@H]3CCO)nc12 [Compound I-82, (S,E)-N-(3-(6-amino-5-(2-(4-(4-(2-(2-(2-((5-(((3-ethyl-5-(2-(2-hydroxyethyl)piperidin-1-yl)pyrazolo[1,5-a]pyrimidin-7-yl)amino)methyl)pyridin-2-yl)oxy)ethoxy)ethoxy)ethoxy)piperidin-1-yl)-N-methylbut-2-enamido)ethoxy)pyrimidin-4-yl)-5-fluoro-2-methylphenyl)-4-cyclopropyl-2-fluorobenzamide] | 500 to 1500 | 50 to 500 | < 50 |  | 1500 to 5000 | 

The next lines start with results.

GI50 (HeLa cells; Homo sapiens, 72 h) [nM] | Kd (BTK) [nM] | Kd (CDK9) [nM] | GI50 (HeLa cells) [nM] | Compound | GI50 (HEK293 cells; Homo sapiens, 72 h) [nM] | GI50 (HEK293 cells) [nM]
< 500 | < 50 | 50 to 500 |  | CCc1cnn2c(NCc3ccc(OCCOCCOCCOCCOCCOC/C=C/C(=O)N4CCC[C@@H](n5nc(-c6ccc(Oc7ccccc7)cc6)c6c(N)ncnc65)C4)nc3)cc(N3CCCC[C@H]3CCO)nc12 [Compound I-42] | 500 to 1500 | 
1500 to 5000 | < 50 | 500 to 2500 |  | CN(C/C=C/C(=O)N1CCC[C@@H](n2nc(-c3ccc(Oc4ccccc4)cc3)c3c(N)ncnc32)C1)CCOCCOCCOCCOCCNS(=O)(=O)c1ccc(Nc2ncc(Br)c(Nc3cccc(F)c3C(N)=O)n2)cc1 [Compound I-64, 2-[[2-[4-[2-[2-[2-[2-[2-[[(E)-4-[(3R)-3-[4-amino-3-(4-phenoxyphenyl)pyrazolo[3,4-d]pyrimidin-1-yl]-1-piperidyl]-4-oxo-but-2-enyl]-methyl-amino]ethoxy]ethoxy]ethoxy]ethoxy]ethylsulfamoyl]anilino]-5-bromo-pyrimidin-4-yl]amino]-6-fluoro-benzamide] | > 5000 | 
 | < 50 | 500 to 2500 |  | NC(=O)c1c(F)cccc1Nc1nc(Nc2ccc(S(=O)(=O)NCCOCCOCCOC3CCN(C/C=C/C(=O)N4CCC[C@@H](n5nc(-c6ccc(Oc7ccccc7)cc6)c6c(N)ncnc65)C4)CC3)cc2)ncc1Br [Compound I-68, 2-[[2-[4-[2-[2-[2-[[1-[(E)-4-[(3R)-3-[4-amino-3-(4-phenoxyphenyl)pyrazolo[3,4-d]pyrimidin-1-yl]-1-piperidyl]-4-oxo-but-2-enyl]-4-piperidyl]oxy]ethoxy]ethoxy]ethylsulfamoyl]anilino]-5-bromo-pyrimidin-4-yl]amino]-6-fluoro-benzamide] |  | 
 | < 50 | 50 to 500 |  | Cc1c(NC(=O)c2ccc(C3CC3)cc2F)cc(F)cc1-c1ncnc(N)c1OCCN(C)C(=O)/C=C/CN1CCC(OCCOCCOCCNS(=O)(=O)c2ccc(Nc3ncc(Br)c(Nc4cccc(F)c4C(N)=O)n3)cc2)CC1 [Compound I-80, 2-[[2-[4-[2-[2-[2-[[1-[(E)-4-[2-[4-amino-6-[3-[(4-cyclopropyl-2-fluoro-benzoyl)amino]-5-fluoro-2-methyl-phenyl]pyrimidin-5-yl]oxyethyl-methyl-amino]-4-oxo-but-2-enyl]-4-piperidyl]oxy]ethoxy]ethoxy]ethylsulfamoyl]anilino]-5-bromo-pyrimidin-4-yl]amino]-6-fluoro-benzamide] |  | 
